The values below come from ChEMBL document CHEMBL3739268, “Structure activity relationships of 4-hydroxy-2-pyridones: A novel class of antituberculosis agents” (Eur J Med Chem, 2015).

For the assay, the system named is Mycobacterium tuberculosis. In words: Antituberculosis activity against multi-drug resistant Mycobacterium tuberculosis. Format: functional.

≈ marks a conversion by molar mass, not a printed value.

The compound `CC1(C)CCC(Cc2cc(O)c(-c3ccccc3)c(=O)[nH]2)CC1` displayed an MIC of 0.04 µM (≈ 0.0125 µg/mL).
`CC(C)Cc1cc(O)c(-c2ccccc2)c(=O)[nH]1` gave an MIC of 2.5 µM (≈ 0.608 µg/mL).
